Measurements taken from patent US20260231994A1, “TASTE-ENHANCING COMPOSITION, METHOD FOR PRODUCING SAME, FOOD PRODUCT, AND METHOD FOR ENHANCING TASTE OF FOOD PRODUCT” (HOUSE FOODS GROUP INC., priority 2023, published 2026).

Tests used:
Assay type in all cases: in vivo
[1] = Experiment 1 sensory evaluation of “boosting of flavor” (cyclic dipeptides, coriander); conditions: for “boosting of flavor” Average: cyclic dipeptide aqueous solution (concentration as in heat-treated coriander) at final 0.2% (w/w) in reduced-sodium curry roux dispersion, score 1-5; for “boosting of flavor” Evaluation: cyclic dipeptide aqueous solution at final 0.2% (w/w) in reduced-sodium curry roux dispersion, class of average score; for “boosting of flavor” in words: added to reduced-sodium curry roux dispersion, compared with no addition, unheated coriander or common curry roux
Procedure: Flour roux was prepared by putting 20 g of flour and 30 g of beef tallow in a pan, then heating with stirring at 120° C. To this flour roux were added 10 g of sodium chloride, 10 g of sugar, 10 g of cornstarch, 5 g of curry powder and 15 g of other seasoning ingredients (vegetable and fruit extracts, yeast extract and seafood extract), and after heat-treatment to 105° C., the mixture was cooled and solidified, to form a block of common curry roux.
The sodium chloride equivalent per 100 g of this curry roux was 10.6 g.
Reduced-sodium curry roux was prepared according to the same procedure, except that the amount of sodium chloride was reduced to 7 g from the amount in the common curry roux in (1).
The sodium chloride equivalent per 100 g of this reduced-sodium curry roux was 7.7 g.
Out of the cyclic dipeptides included in the heat-treated coriander prepared in 1.1. described above, which were confirmed to be increased in 1.2. above, an aqueous solution of the respective 14 cyclic dipeptides shown in the table described below was prepared. The concentration of the cyclic dipeptide in each aqueous solution was set to be equal to its concentration in the heat-treated coriander prepared in 1.1. described above, which was estimated from the ratio of the peak area of the cyclic dipeptide to the peak area of the internal standard (47 μg/g L-lysine-^13C6 monohydrochloride) confirmed in 1.2. described above.
Two dispersions of 44 g of the reduced-sodium curry roux in (2) dispersed in 300 g of hot water were prepared.
To one of them was added the heat-treated coriander or the powdered unheated coriander prepared in 1.1. described above, or the cyclic dipeptide aqueous solution (corresponding to the heat-treated coriander) prepared in (3) above, so that the final concentration was 0.2% (w/w), and a sensory evaluation was carried out.
Forty-four grams of the common curry roux in (1) was dispersed in 300 g of hot water.
The dispersion of reduced-sodium curry roux dispersed in hot water and the dispersion of common curry roux dispersed in hot water were used as comparative controls, and the strength of the flavor was evaluated by four evaluators on the basis of the following evaluation criteria from the viewpoint of “boosting of flavor.” The term “boosting of flavor” in this experiment is an effect concerted by the combination of sodium chloride and other foodstuffs in curry roux, and is an aspect of “saltiness.” Thus, the “flavor” in this experiment can be also expressed as “saltiness.”
The average of the evaluated scores was defined as “F” when it was 1.0 or lower, “C” when it was 1.1 or higher and 1.9 or lower, “B” when it was 2.0 or higher and 2.5 or lower, “A” when it was 2.6 or higher and 2.9 or lower, and “AA” when it was 3.0 or higher.

[2] = Experiment 6 sensory evaluation of cyclic dipeptides, “top sharp saltiness”
How it was run: (§1)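 Reduced-sodium curry roux (44 g in 300 g hot water) was spiked with cyclic dipeptide solutions matching heat-treated coriander or paprika levels, at 0.5% or 1.0% (w/w) final. Three evaluators scored each sample against unspiked reduced-sodium and common roux. Mean scores were graded F to AA.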

[3] = Experiment 6 sensory evaluation of cyclic dipeptides, “middle fullness (enhanced thickness)”
How it was run: as §1

[4] = Experiment 6 sensory evaluation of cyclic dipeptides, “boosting of last flavor (aftertaste)”
How it was run: as §1

[5] = Additive amount coriander 0.5% (heat-treated coriander equivalent aqueous solution, final 0.5% (w/w)), reduced-sodium curry roux
[6] = Additive amount coriander 0.5%, reduced-sodium curry roux
[7] = heat-treated coriander equivalent aqueous solution of cyclic dipeptide, final 1.0% (w/w) in reduced-sodium curry roux dispersion
[8] = heat-treated coriander equivalent aqueous solution of cyclic dipeptide, final 1.0% (w/w) in reduced-sodium curry roux dispersion, 3 evaluators
[9] = Additive amount paprika 0.5% (heat-treated paprika equivalent aqueous solution, final 0.5% (w/w)), reduced-sodium curry roux
[10] = Additive amount paprika 0.5%, reduced-sodium curry roux
[11] = heat-treated paprika equivalent aqueous solution of cyclic dipeptide, final 1.0% (w/w) in reduced-sodium curry roux dispersion
[12] = heat-treated paprika equivalent aqueous solution of cyclic dipeptide, final 1.0% (w/w) in reduced-sodium curry roux dispersion, 3 evaluators

cyclic (Arg-Pro) [Coriander ID 45]
“boosting of flavor” Average [1]: 2.0 points | “boosting of flavor” Evaluation [1]: B (“B” when it was 2.0 or higher and 2.5 or lower) | Top sharp saltiness Average [2, 5]: 2.0 points | Top sharp saltiness Evaluation [2, 6]: B (“B” when it was 2.0 or higher and 2.5 or lower) | Top sharp saltiness Evaluation [2, 7]: C (“C” when it was 1.1 or higher and 1.9 or lower) | Top sharp saltiness Average [2, 8]: 1.8 points | Middle fullness Average [3, 6]: 2.5 points | Middle fullness Evaluation [3, 6]: B (“B” when it was 2.0 or higher and 2.5 or lower) | Middle fullness Evaluation [3, 7]: B (“B” when it was 2.0 or higher and 2.5 or lower) | Middle fullness Average [3, 8]: 2.0 points | Bosting of last flavor Average [4, 6]: 2.8 points | Bosting of last flavor Evaluation [4, 6]: A (“A” when it was 2.6 or higher and 2.9 or lower) | Bosting of last flavor Evaluation [4, 7]: B (“B” when it was 2.0 or higher and 2.5 or lower) | Bosting of last flavor Average [4, 8]: 2.2 points

cyclic (Pro-Val) [Coriander ID 29]
“boosting of flavor” in words [1]: comparable flavor to that of the dispersion of common curry roux | “boosting of flavor” Average [1]: 3.0 points | “boosting of flavor” Evaluation [1]: AA (“AA” when it was 3.0 or higher) | Top sharp saltiness Average [2, 9]: 2.5 points | Top sharp saltiness Evaluation [2, 10]: B (“B” when it was 2.0 or higher and 2.5 or lower) | Top sharp saltiness Evaluation [2, 11]: B (“B” when it was 2.0 or higher and 2.5 or lower) | Top sharp saltiness Average [2, 12]: 2.2 points | Middle fullness Average [3, 10]: 2.3 points | Middle fullness Evaluation [3, 10]: B (“B” when it was 2.0 or higher and 2.5 or lower) | Middle fullness Evaluation [3, 11]: B (“B” when it was 2.0 or higher and 2.5 or lower) | Middle fullness Average [3, 12]: 2.3 points | Bosting of last flavor Average [4, 10]: 2.2 points | Bosting of last flavor Evaluation [4, 10]: B (“B” when it was 2.0 or higher and 2.5 or lower) | Bosting of last flavor Evaluation [4, 11]: B (“B” when it was 2.0 or higher and 2.5 or lower) | Bosting of last flavor Average [4, 12]: 2.3 points

cyclic (Phe-Pro) [Coriander ID 40]
“boosting of flavor” Average [1]: 2.8 points | “boosting of flavor” Evaluation [1]: A (“A” when it was 2.6 or higher and 2.9 or lower) | Top sharp saltiness Average [2, 9]: 2.5 points | Top sharp saltiness Evaluation [2, 10]: B (“B” when it was 2.0 or higher and 2.5 or lower) | Top sharp saltiness Evaluation [2, 11]: A (“A” when it was 2.6 or higher and 2.9 or lower) | Top sharp saltiness Average [2, 12]: 2.7 points | Middle fullness Average [3, 10]: 2.3 points | Middle fullness Evaluation [3, 10]: B (“B” when it was 2.0 or higher and 2.5 or lower) | Middle fullness Evaluation [3, 11]: AA (“AA” when it was 3.0 or higher) | Middle fullness Average [3, 12]: 3.2 points | Bosting of last flavor Average [4, 10]: 2.3 points | Bosting of last flavor Evaluation [4, 10]: B (“B” when it was 2.0 or higher and 2.5 or lower) | Bosting of last flavor Evaluation [4, 11]: AA (“AA” when it was 3.0 or higher) | Bosting of last flavor Average [4, 12]: 3.0 points

cyclic (Phe-Ala) [Coriander ID 33]
“boosting of flavor” in words [1]: comparable flavor to that of the dispersion of common curry roux | “boosting of flavor” Average [1]: 3.0 points | “boosting of flavor” Evaluation [1]: AA (“AA” when it was 3.0 or higher) | Top sharp saltiness Average [2, 5]: 2.3 points | Top sharp saltiness Evaluation [2, 6]: B (“B” when it was 2.0 or higher and 2.5 or lower) | Top sharp saltiness Evaluation [2, 7]: B (“B” when it was 2.0 or higher and 2.5 or lower) | Top sharp saltiness Average [2, 8]: 2.0 points | Middle fullness Average [3, 6]: 2.5 points | Middle fullness Evaluation [3, 6]: B (“B” when it was 2.0 or higher and 2.5 or lower) | Middle fullness Evaluation [3, 7]: B (“B” when it was 2.0 or higher and 2.5 or lower) | Middle fullness Average [3, 8]: 2.5 points | Bosting of last flavor Average [4, 6]: 2.5 points | Bosting of last flavor Evaluation [4, 6]: B (“B” when it was 2.0 or higher and 2.5 or lower) | Bosting of last flavor Evaluation [4, 7]: B (“B” when it was 2.0 or higher and 2.5 or lower) | Bosting of last flavor Average [4, 8]: 2.5 points

cyclic (Pro-Met) [Coriander ID 53]
“boosting of flavor” Average [1]: 2.3 points | “boosting of flavor” Evaluation [1]: B (“B” when it was 2.0 or higher and 2.5 or lower) | Top sharp saltiness Average [2, 5]: 3.0 points | Top sharp saltiness Evaluation [2, 6]: AA (“AA” when it was 3.0 or higher) | Top sharp saltiness Evaluation [2, 7]: AA (“AA” when it was 3.0 or higher) | Top sharp saltiness Average [2, 8]: 3.0 points | Middle fullness Average [3, 6]: 3.2 points | Middle fullness Evaluation [3, 6]: AA (“AA” when it was 3.0 or higher) | Middle fullness Evaluation [3, 7]: AA (“AA” when it was 3.0 or higher) | Middle fullness Average [3, 8]: 3.0 points | Bosting of last flavor Average [4, 6]: 3.0 points | Bosting of last flavor Evaluation [4, 6]: AA (“AA” when it was 3.0 or higher) | Bosting of last flavor Evaluation [4, 7]: AA (“AA” when it was 3.0 or higher) | Bosting of last flavor Average [4, 8]: 3.8 points

cyclic (Ala-Leu/Ile) [Coriander ID 32]
“boosting of flavor” Average [1]: 2.8 points | “boosting of flavor” Evaluation [1]: A (“A” when it was 2.6 or higher and 2.9 or lower) | Top sharp saltiness Average [2, 5]: 2.1 points | Top sharp saltiness Evaluation [2, 6]: B (“B” when it was 2.0 or higher and 2.5 or lower) | Top sharp saltiness Evaluation [2, 7]: B (“B” when it was 2.0 or higher and 2.5 or lower) | Top sharp saltiness Average [2, 8]: 2.5 points | Middle fullness Average [3, 6]: 2.2 points | Middle fullness Evaluation [3, 6]: B (“B” when it was 2.0 or higher and 2.5 or lower) | Middle fullness Evaluation [3, 7]: A (“A” when it was 2.6 or higher and 2.9 or lower) | Middle fullness Average [3, 8]: 2.8 points | Bosting of last flavor Average [4, 6]: 2.1 points | Bosting of last flavor Evaluation [4, 6]: B (“B” when it was 2.0 or higher and 2.5 or lower) | Bosting of last flavor Evaluation [4, 7]: AA (“AA” when it was 3.0 or higher) | Bosting of last flavor Average [4, 8]: 3.2 points
